Laboratory results published in the supplement of paper PMC3974653.
Counter-ions that a name gives are not always drawn.

Test system: MTT (mouse pheochromocytoma)
Test: IC50 of cell viability (ATP content)
Conditions: (24 or 48 h)
Outline: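 The IC50 was fitted with a four-parameter logistic equation to normalised CellTiter-Glo ATP luminescence from MTT mouse pheochromocytoma cells. These cells, in white 1536-well plates, had been treated for 24 or 48 hrs with library compounds at 8 final concentrations between 0.5 nM and 46 µM, and luminescence was read after 15 minutes. Positive-control wells served as 100% and DMSO wells as 0%.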

| Structure (SMILES) | IC50 of cell viability [µM] |
| --- | --- |
| C[C@H]1O[C@H](C[C@H](O)[C@@H]1O)O[C@H]2[C@@H](O)C[C@@H](O[C@@H]2C)O[C@H]3[C@@H](O)C[C@@H](O[C@@H]3C)O[C@H]4CC[C@@]5(C)[C@H](CC[C@@H]6[C@@H]5C[C@@H](O)[C@]7(C)[C@H](CC[C@]67O)C/8=C/C(=O)OC8)C4 [Digoxin] | > 46 |
| CCCC[C@@H](CC)COC(=O)C[C@H](C(=O)OC[C@H](CC)CCCC)S(=O)(=O)[O-] [Dioctyl sulfosuccinate sodium salt] | > 46 |
| O.O.O.[Na+].[Na+].O[Hg]C1=C2OC/3=C/C(=O)/C(=C\C3=C(\C2=CC(=C1[O-])Br)C4=C(C=CC=C4)C([O-])=O)Br [Merbromin] | > 46 |
| CCCOC(=O)c1ccc(O)cc1 [Propyl-4-hydroxybenzoate] | > 46 |
| C=CC[N@@H+]1/C(=C/CO)[C@@H]2C[C@H]3[C@H]1CC[C@]31c3ccccc3N3/C=C4/[C@@H]5C[C@@H]6[C@H](CC[C@@]67c6ccccc6N(/C=C\2[C@H]31)[C@@H]47)[N@@H+](CC=C)/C5=C\CO [Alcuronium chloride] | > 46 |
| CC/1=N/C2=CC=CC=C2C(=O)N1C3=C(Cl)C=CC=C3 [Mecloqualone] | > 46 |
| Cc1cc(NS(=O)(=O)c2ccc(N)cc2)nc(C)n1 [Sulfisomidine] | > 46 |
| CC(=O)OC1C([N+]2(C)CCCCC2)C[C@H]2C3CC[C@H]4C[C@H](OC(C)=O)C([N+]5(C)CCCCC5)CC4(C)[C@@H]3CCC12C (stereo not given in full) [PANCURONIUM] | > 46 |
| Oc1ccnc(S)n1 [2-THIOURACIL] | > 46 |
| C[C@](N)(Cc1ccc(O)c(O)c1)C(=O)O [Methyldopa sesquihydrate] | > 46 |
| C[C@@H]1C[C@@H]2[C@H]3CC\C4=C\C(=O)\C=C/[C@]4(C)[C@]3(F)[C@@H](O)C[C@@]2(C)[C@@]1(O)C(=O)COC(C)=O [Dexamethasone acetate] | > 46 |
| CN(C)[C@@H]\1[C@@H]2C[C@H]3\C(=C(\O)[C@@]2(O)C(=O)\C(=C1O)C(=O)NCN4CCCC4)C(=O)C5=C(C=CC=C5O)[C@@]3(C)O [Rolitetracycline] | > 46 |
| CC(C(=O)O)c1ccc(N2Cc3ccccc3C2=O)cc1 (stereo not given) [INDOPROFEN] | > 46 |
| COc1cc2ncnc(Nc3ccc(F)c(Cl)c3)c2cc1OCCCN1CCOCC1 [Gefitinib] | > 46 |
| CC1(C)CC1C(=O)N/C(=C/CCCCSCC(N)C(=O)[O][Na])C(=O)O (stereo not given) [CILASTATIN SODIUM] | > 46 |
| CN1C(=O)CC(C)(c2ccccc2)C1=O (stereo not given) [Methsuximide] | > 46 |
| CC(=O)Nc1c(I)cc(I)c(C(=O)O)c1I [ACETRIAZOIC ACID] | > 46 |
| Cc1cccc(CN2CCN([C@@H](c3ccccc3)c3ccc(Cl)cc3)CC2)c1 [Meclozine dihydrochloride] | > 46 |
| C[C@H](NC(C)(C)C)C(=O)c1cccc(Cl)c1 [Bupropion hydrochloride] | > 46 |
| CCCCCCCCCCCCCCCC(=O)OCCC1CCN(CCCN2c3ccccc3Sc3ccc([S+](=O)([O-])N(C)C)cc32)CC1 [Pipothiazine palmitate] | > 46 |
| COC12CCC3(CC1[C@](C)(O)C(C)(C)C)[C@H]1Cc4ccc(O)c5c4[C@@]3(CCN1CC1CC1)C2O5 (stereo not given in full) [Bupenorphine] | > 46 |
| C[Si](C)(C)O[Si](C)(C)C [Disiloxane, hexamethyl-] | > 46 |
| CCOC(=O)[C@H](CCc1ccccc1)N[C@@H](C)C(=O)N1[C@@H](C(=O)O)C[C@H]2CCC[C@@H]21 [Ramipril] | > 46 |
| CCCCCCCC(=O)OCC(COC(=O)CCCCCCC)OC(=O)CCCCCCC [Tricaprylin] | > 46 |

| Structure (SMILES) | IC50 of cell viability [µM] |
| --- | --- |
| CN(Cc1ccc(C(C)(C)C)cc1)Cc1cccc2ccccc12 [Butenafina] | > 46 |
| O=C(NC(O)C(Cl)(Cl)Cl)NC(O)C(Cl)(Cl)Cl (stereo not given) [Dicloralurea] | > 46 |
| Cn1c([N+](=O)[O-])cnc1COC(N)=O [RONIDAZOLE] | > 46 |
| CCC1(CC)C(=O)NC(=O)NC1=O [Barbital] | > 46 |
| O=[S+]1([O-])OC(c2ccc(O)cc2)(c2ccc(O)cc2)c2ccccc21 [Fenolipuna] | > 46 |
| CN1CCN(C(=O)C2CCCCC2)CC1 [Pexantel] | > 46 |
| CCN[C@@H]1C[C@H](N)[C@H](O[C@@H]2O\C(=C/C[C@H]2N)CN)[C@@H](O)[C@@H]1O[C@@H]3OC[C@@](C)(O)[C@@H](NC)[C@H]3O [Netilmicin sulfate] | > 46 |
| COc1cc2c(cc1OC)[C@@H](Cc1cc(OC)c(OC)c(OC)c1)[N+](C)(CCCOC(=O)CC/C=C/CCC(=O)OCCC[N+]1(C)CCc3cc(OC)c(OC)cc3[C@H]1Cc1cc(OC)c(OC)c(OC)c1)CC2 (stereo not given in full) [MIVACURIUM CHLORIDE] | > 46 |
| CC(C)NNC(=O)c1ccncc1.O=[S+]([O-])(O)O [IPRONIAZID SULFATE] | > 46 |
| COC(=O)CC[C@H](N)C(=O)O [LEUCIGLUMERUM] | > 46 |
| OC(CCCN1CCCCC1)(c1ccccc1)c1ccccc1 [Diphenidol] | > 46 |
| Cl.NCCCC(N)(C(=O)O)C(F)F (racemic) [DL-alpha-Difluoromethylornithine hydrochloride] | > 46 |
| NC(=O)CC[C@@H](N)C(=O)O [D-GLUTAMINE] | > 46 |
| C/C(=C\C(=O)OCCCCCCCCC(=O)O)C[C@@H]1OC[C@H](C[C@@H]2O[C@H]2[C@@H](C)[C@H](C)O)[C@@H](O)[C@H]1O [MUPIROCIN] | > 46 |
| COP(=S)(OC)Oc1cc(Cl)c(Cl)cc1Cl [Fenchlorphos] | > 46 |
| CN(C(=O)C(Cl)Cl)c1ccc(OC(=O)c2ccco2)cc1 [Diloxanide furoate] | > 46 |
| CC1OC(C)OC(C)O1 (stereo not given) [PARALDEHYDE] | > 46 |
| O=C(O)CNC(=O)CNC(=O)CNC(=O)CSC(=O)c1ccccc1 [BENZOYLMERCAPTOACETYLGLYCYLGLYCYLGLYCINE (Betiatide)] | > 46 |
| CN(CCO)CC(O)Cn1cnc2c1c(=O)n(C)c(=O)n2C.O=C(O)c1cccnc1 (stereo not given) [Xanthinol niacinate] | > 46 |
| O=C(/C=C/c1ccccc1)OCc1ccccc1 [BENZYL CINNAMATE] | > 46 |
| CC(C)CN(C[C@@H](OP(=O)([O-])[O-])[C@H](Cc1ccccc1)NC(=O)O[C@@H]1CCOC1)[S+](=O)([O-])c1ccc(N)cc1 [FOSAMPRENAVIR CALCIUM] | > 46 |
| N[C@@H]1C[C@H]1c1ccccc1 [Tranylcypromine hydrochloride] | > 46 |
| CCCNC(=O)N[S+](=O)([O-])c1ccc(Cl)cc1 [Chlorpropamide] | > 46 |
| CN(CC1(C)CCCO1)[S+](=O)([O-])c1ccc(Cl)c([S+](N)(=O)[O-])c1 (stereo not given) [MEFRUSIDE] | > 46 |

| Structure (SMILES) | IC50 of cell viability [µM] |
| --- | --- |
| Nc1cccc2c(N)cccc12 [1,5-Diaminonaphthalene] | > 46 |
| N=C(N)NCCCC[C@@H]1NC(=O)CCSSC[C@@H](C(N)=O)NC(=O)[C@@H]2CCCN2C(=O)[C@H](Cc2c[nH]c3ccccc23)NC(=O)[C@H](CC(=O)O)NC(=O)CNC1=O [EPTIFIBATIDE] | > 46 |
| CCOC(C)=O [Ethyl acetate] | > 46 |
| O=c1[n-]c(=O)n(Cl)c(=O)n1Cl [Sodium dichloroisocyanurate] | > 46 |
| C=CC(C)(O)CC/C=C(\C)CCC=C(C)C (stereo not given) [NEROLIDOL] | > 46 |
| O=C(Oc1ccccc1)c1ccccc1O [Phenyl salicylate] | > 46 |
| CCCc1nc2c(C)cc(-c3nc4ccccc4n3C)cc2n1Cc1ccc(-c2ccccc2C(=O)O)cc1 [TELMISARTAN] | > 46 |
| CC1CC2C(CC[C@]3(C)C2CC[C@@]3(OC(C)=O)C(C)=O)[C@]\4(C)CCC(=O)\C=C14 (stereo not given in full) [MEDROXYPROGESTERONE ACETATE] | > 46 |
| Cc1cccc(C)c1NC(=O)CN1CCCC1=O [Nefiracetam] | > 46 |
| CCOC(=O)CCC(=O)OC1C(OC2C(C)C(OC3CC(C)(OC)C(O)C(C)O3)C(C)C(=O)OC(CC)C(C)(O)C(O)C(C)C(=O)C(C)CC2(C)O)OC(C)CC1N(C)C (stereo not given) [Erythromycin ethyl succinate] | > 46 |
| Clc1ccc(Cl)cc1 [PARADICHLOROBENZENE] | > 46 |
| CCCCCCCCCCCCCCCCO [CETYL ALCOHOL] | > 46 |
| Oc1ccnc(O)n1 [URACIL] | > 46 |
| Cc1cn[nH]c1.Cl [4-Methylpyrazole hydrochloride] | > 46 |
| CN(Cc1ccccc1)Cc1ccccc1 [Dibemethine] | > 46 |
| CCOc1cc(-c2nccc3cc(OC)c(OC)cc23)cc(OCC)c1OCC [OCTAVERINUM] | > 46 |
| N[C@@H](Cc1cc(I)c(Oc2ccc(O)c(I)c2)c(I)c1)C(=O)O [Detrothyronin] | > 46 |
| Cc1ccc(Nc2nccc(N(C)c3ccc4c(C)n(C)nc4c3)n2)cc1[S+](N)(=O)[O-] [Pazopanib] | > 46 |
| COc1ccc(-c2noc(CC(=O)O)c2-c2ccc(OC)cc2)cc1 [MOFEZOLAC] | > 46 |
| CC(C)Cc1ccc(CC(=O)O)cc1 [Ibufenac] | > 46 |
| NC(=O)c1ncn(C2OC(CO)C(O)C2O)c1N (stereo not given) [AICAR] | > 46 |
| CCC(=O)OC1[C@@H](N2CCCCC2)C[C@H]2[C@@H]3CC[C@H]4C[C@H](OC(C)=O)[C@@H](N5CCCCC5)C[C@]4(C)[C@H]3CC[C@]12C (stereo not given in full) | > 46 |
